Test results published in US10159746B2, “Cyclodextrin complexation methods for formulating peptide proteasome inhibitors” (Onyx Therapeutics, Inc., priority 2012, dated 2018).
In brackets after ≈: the same amount, converted by molar mass.

Assays:
Assay type in all cases: physicochemical
[1] = Slurry-based complexation/solubilization of CFZ-API in SBECD with citric acid (Example 1); conditions: SBECD/WFI/citric acid slurry, 2-8° C., mixed a further 24 hours
Method: In a 525 L stainless steel jacketed cooled tank controlled to 2° C.-8° C., a suspension of 2.0 kg carfilzomib-API (CFZ-API), 246 kg water for injection (WFI), and 100 kg sulfobutylether beta-cyclodextrin (SBECD) was prepared. Specifically, in the 525 L stainless steel jacketed cooled tank controlled to 2° C.-8° C., 100 kg SBECD was dissolved in 246 kg WFI. The Carfilzomib suspension was then prepared using 2.0 kg of CFZ-API. Mixing was performed using an impeller mixer to maintain suspension of the CFZ-API solids and dissolve the SBECD. In the same vessel, a probe style rotor-stator high shear mixer (homogenizer) was used as well as the low shear impeller. The high shear mixer was operated for approximately 1 hour yielding an even suspension and reduction of particle size for any larger primary particles or agglomerated API. After a suspension was achieved, 1.96 kg of citric acid was added as a 16% aqueous solution. The pH of the solution was then lowered inducing partial solubilization of the CFZ-API followed by and complexation due to the presence of SBECD. Mixing was continued for a further 24 hours with both the impeller and the high shear mixer and a dissolved concentration of CFZ-API of greater than 5.1 mg/mL was achieved. […]

[2] = Chlorohydrin degradation product (CDP) formation in lyophilized carfilzomib/SBECD product by HPLC: pH, water and sodium chloride varied (Example 2)
Method: A multivariate statistical design of experiments was conducted to assess factors controlling the level of chlorohydrin degradation product as a function of processing parameters and storage time over six months. The complexation was performed in the proportion and parameters given in Example 1, with the following modifications: (i) the complexation process was performed at 2 L batch size; (ii) the final pH of solution before vial filling was varied for purposes of the experiment from 3.0, to 4.0; (iii) sodium chloride was spiked into SBECD in some experiments to create a high sodium chloride condition; (iv) water content of the lyophilized final product in stoppered vials was produced at high and low sodium chloride conditions via early termination and stoppering of vials to create a higher residual water content condition.
The solution of complexed carfilzomib for injection bulk solution pre-lyophilization included aqueous 5 mg/mL carfilzomib, 250 mg/mL Captisol® (SBECD) and 4.86 mg/mL citric acid, pH adjusted with aqueous sodium hydroxide. Compounding of the bulk solutions for lyophilization followed the procedure detailed in Example 1 with the following manipulations to create solutions with different specific attributes: • 1. pH was adjusted to 3.0 and 4.0 • 2. Sodium chloride was spiked into the Captisol® to create a “High Chloride” condition Captisol® manufactured by Cydex, a subsidiary of Ligand, has a standard product analysis range for sodium chloride from 0.05% to 0.2% (w/v). […] 400 g of this Captisol® was required per batch for the process to be performed at 2 L scale batches of complexation processing (in same proportions and general parameters per Example 1). To create the “high chloride” condition, 0.6 g of NaCl was added to 399.4 g of Captisol® which thus mimicked what a batch containing 0.2% chloride Captisol® would be comprised of.
In order to generate two (2) moisture content conditions in the final lyophilized vials, two (2) sets of 61.8 mg/vial (of CFZ-API) samples were lyophilized. The first cycle generated the “dry” sample set of vials containing approximately 0.6% residual water per Example 1 lyophilization parameters. For the second sample set, lyophilization was terminated and vials stoppered earlier in the secondary drying phase to generate the “wet” condition vials, with residual moisture approximately 2.4% water per vial initially.
The bulk solution of complexed carfilzomib was analyzed during manufacture by High Performance Liquid Chromatography (HPLC) to accurately quantify the concentration of dissolved and complexed carfilzomib drug substance. Subsequently, additional water was added to accurately dilute the bulk complexed solution. After this dilution step, HPLC was used again to ensure a target concentration of 5.0 mg/mL was achieved. Samples of the three (3) final bulk solutions were analyzed for potency and purity confirmation testing by HPLC. […] Karl Fischer Coulometry method was used for the water content determination in the lyophilized drug product.

[3] = Compounding study: dissolved carfilzomib versus time in 25% (w/v) SBE-β-CD (Example 5); conditions: CFZ-API suspension in 25% (w/v) SBE-β-CD solution, aqueous with cosolvent or surfactant or cyclodextrin, thermodynamic from solid, read-out: solubilized concentration during compounding
Method: SBE-β-CD was dissolved in WFI to achieve 25% (w/v) solution. A suspension of CFZ-API in the SBE-β-CD solution was prepared by homogenization per the solubility study
API solids were added in all experiments to theoretically yield a ˜6 mg/mL final solution to mimic the commercial process
After homogenization, pH was lowered using citric acids to affect solubilization, while continuing mixing up 24 hours. Then, all preparations were adjusted to pH 3.5. Dissolved concentration as a function of time was measured by sampling, filtration, then HPLC analysis to monitor the kinetics of complexation in the slurry based process.

- dissolved concentration of CFZ-API [1]: greater than 5.1 mg/mL
- % Area of CDP after 6 months (HPLC data) ([2]; 5° C., pH 3.00, water 0.7%, sodium chloride 0.05%): 0.00 % Area
- % Area of CDP after 6 months (HPLC data) ([2]; 5° C., pH 3.00, water 0.7%, sodium chloride 0.2%): 0.13 % Area
- % Area of CDP after 6 months (HPLC data) ([2]; 5° C., pH 3.00, water 2%, sodium chloride 0.05%): 0.02 % Area
- % Area of CDP after 6 months (HPLC data) ([2]; 5° C., pH 3.00, water 2%, sodium chloride 0.2%): 0.28 % Area
- % Area of CDP after 6 months (HPLC data) ([2]; 5° C., pH 4.00, water 0.7%, sodium chloride 0.05%): 0.00 % Area
- % Area of CDP after 6 months (HPLC data) ([2]; 5° C., pH 4.00, water 0.7%, sodium chloride 0.2%): 0.08 % Area
- % Area of CDP after 6 months (HPLC data) ([2]; 5° C., pH 4.00, water 2%, sodium chloride 0.05%): 0.02 % Area
- % Area of CDP after 6 months (HPLC data) ([2]; 5° C., pH 4.00, water 2%, sodium chloride 0.2%): 0.18 % Area
- % Area of CDP after 6 months (HPLC data) ([2]; 25° C., pH 3.00, water 0.7%, sodium chloride 0.05%): 0.14 % Area
- % Area of CDP after 6 months (HPLC data) ([2]; 25° C., pH 3.00, water 0.7%, sodium chloride 0.2%): 0.70 % Area
- % Area of CDP after 6 months (HPLC data) ([2]; 25° C., pH 3.00, water 2%, sodium chloride 0.05%): 0.55 % Area
- % Area of CDP after 6 months (HPLC data) ([2]; 25° C., pH 4.00, water 0.7%, sodium chloride 0.05%): 0.09 % Area
- % Area of CDP after 6 months (HPLC data) ([2]; 25° C., pH 4.00, water 0.7%, sodium chloride 0.2%): 0.36 % Area
- % Area of CDP after 6 months (HPLC data) ([2]; 25° C., pH 4.00, water 2%, sodium chloride 0.05%): 0.35 % Area
- solubility at 2 h ([3]; first 2 hours): 4500 µg/mL (≈ 6.25 mM)
- solubility ([3]; slow equilibration phase, in >20 hours): 5500 µg/mL (≈ 7.64 mM)
Compound: CC(C)C[C@H](NC(=O)[C@H](CCc1ccccc1)NC(=O)CN1CCOCC1)C(=O)N[C@@H](Cc1ccccc1)C(=O)N[C@@H](CC(C)C)C(=O)[C@@]1(C)CO1 [carfilzomib]
